# Read-outs that look alike come from different tables or passages of the source.
# What was measured:
# HIV-1 = test system: HIV-1
# Excerpt: The single dose monotherapy efficacy of EFDA is currently being evaluated in HIV-1 patients naïve to anti-retroviral treatment.
# SIV = conditions: PBMCs isolated from uninfected monkeys 24 hr after drug administration; Stoddart et al. 2015; cited from earlier work
# [1] = Phase I multiple rising dose pharmacokinetics, three once weekly oral doses of EFdA capsules in healthy adults; format: in vivo, human; conditions: for plasma concentration (below LLQ): 10 mg dose, all subjects; for Cmax / Tmax / half-life / AUC(0-t) / AUC0-168 hr: healthy fasted subjects; for Cmax / half-life / AUC(0-t) / AUC0-168 hr: geometric mean (%GCV); for Cmax accumulation ratio Week 3/Week 1: geometric mean (min, max); for Tmax / half-life / AUC(0-t): human; for Tmax: po, median (min, max); for AUC(0-t): read-out: AUC0-168 hr
# Experimental: (§1) Pharmacokinetics of EFdA Following Administration of Oral Doses in Healthy Humans.
# (§2) The pharmacokinetics of EFdA were evaluated in Phase I single and multiple rising dose studies. In the single dose study, single oral doses of the oral suspension of EFdA from 5 to 400 mg were administered to three alternating panels of 8 healthy adult subjects. Within each panel, subjects were administered single doses of EFdA (n=6) or matching placebo (n=2) in a blinded fashion in up to 3 treatment periods. Panel A received 15 mg and 200 mg. Panel B received 30 mg, 400 mg, and 30 mg with food. Panel C received 100 mg and 5 mg. In the multiple rising dose study, multiple doses of EFdA oral capsules were administered to three panels of 8 healthy adult subjects. Within each panel, subjects were administered three once weekly doses of EFdA (n=6) or matching placebo (n=2) on Days 1, 8, and 15. Panel A received 10 mg. Panel B received 30 mg, and Panel C received 100 mg.
# SIVmac251 = experiment: Once-weekly efficacy in an SIV infected rhesus monkey model of HIV-infection; format: in vivo; conditions: SIV-infected monkeys
# Experimental: Once-Weekly Efficacy in an SIV Infected Rhesus Monkey Model of HIV-Infection.
# Oral efficacy studies were conducted at New Iberia Research Center (NIRC), Lafayette, Louisiana Following treatment with BAYTRIL® (5 mg/kg, IM, SID) for 5 days, 20 monkeys were inoculated intravenously with SIVmac251. After 3 days, venous blood was collected every 2-5 days (2× per week) for viral load testing and monitored to stable viremia (wherein 3 consecutive samples were within 3-fold of each other following acute viremia peak). Plasma SIV viral RNA levels were determined using a branched DNA technique at Siemens Diagnostics, Berkeley, California.
# Following determination of stable viremia, SIV-infected monkeys were randomized by age, weight, and viral load (n=3 per group). A 2-arm adaptive design was employed in which results from Arm 1 informed the doses for Arm 2. In Arm 1, animals received two once-weekly doses of vehicle, 1.3 mg/kg EFdA, or 13 mg/kg EFdA administered via oral gavage. In Arm 2, animals received 3.9 mg/kg or 18.2 mg/kg EFdA once-weekly or 0.19 mg/kg EFdA once daily for two weeks. Blood (4 ml) was drawn for viral load determinations during the treatment period on days −2, 0 (dosing day), 1, 2, 3, 5, 7 (dosing day), 8, 9, 10, 12, and 14, and then two times per week for 3 weeks during the washout period. In addition, blood (1 ml) was drawn on days 0 (2 hrs post dose), 1 (24 hr post dose), 7 (2 hrs post dose), and 8 (24 hrs post dose) for EFdA pharmacokinetic assessment.
# SIV RNA for genotyping was isolated from 140 μl plasma using the QIAamp Viral RNA Mini kit (Cat #52904/52906). The reverse transcriptase region of SIVmac251 was reverse transcribed and amplified using SuperScript III RT/Platinum polymerase, primers S251RTF1 ([…] [2732-2751]) and S251RTR1 ([…] [4206-4225]) and 8 μl template RNA in 20 μl reactions. A nested PCR reaction was carried out using 3.5 μl of the product from the first reaction with TaKaRa LA Taq and primers S251RTF2 ([…] [2750-2769]) and S251RTR2 ([…] [4169-4188]) in 50 μl reactions. After verifying size of ˜1.5 kb by gel electrophoresis, PCR products were purified using ExoSAP-IT (Affymetrix; cat #78201) and adjusted to 15 ng/ml. PCR products (10 μl) were mixed with 5 μl 5 μM sequencing primers S251RTS5 ([…] [2760-2779]), s251RTS6 ([…] [3266-3285]), or S251RTS7 ([…] [3755-3774]). DNA sequencing was carried out at Genewiz (115 Corporate Blvd, South Plainfield, NJ 07080).
# [2] = Phase I single rising dose pharmacokinetics of oral EFdA suspension in healthy adults; format: in vivo, human
# Experimental: as §1, §2
# [3] = in vitro; lymphoid derived cell lines and peripheral blood mononuclear cells; Stoddart et al. 2015; cited from earlier work
# [4] = single 10 mg dose, HIV-1 patients, plasma HIV-1 RNA, N=6
# [5] = single 10 mg dose, adjusted by pooled historical placebo
# [6] = EFdA in plasma, 30 mg oral once weekly, Week 3
# [7] = EFdA in plasma, 100 mg oral once weekly, Week 3
# [8] = EFdA-TP in PBMCs, EFdA 10 mg oral once weekly, Week 1
# [9] = EFdA-TP in PBMCs, EFdA 30 mg oral once weekly, Week 1
# [10] = EFdA-TP in PBMCs, EFdA 30 mg oral once weekly, Week 3
# [11] = EFdA-TP in PBMCs, EFdA 100 mg oral once weekly, Week 1
# [12] = EFdA-TP in PBMCs, EFdA 100 mg oral once weekly, Week 3
# [13] = PBMCs, following multiple doses of 30 mg and 100 mg
smiles,measurement,setting,value
"C#C[C@]1(CO)O[C@@H](n2cnc3c(N)nc(F)nc32)C[C@@H]1O [EFdA, 4′-Ethynyl-2-fluoro-2′-deoxyadenosine]","Change from Baseline in Viral Load, Max",HIV-1; [4],−1.31 log10 copies/mL
same,"Change from Baseline in Viral Load, Median",HIV-1; [4],−1.63 log10 copies/mL
same,"Change from Baseline in Viral Load, Min",HIV-1; [4],−1.97 log10 copies/mL
same,"Change from Baseline in Viral Load, LS mean (95% CI)","HIV-1; single 10 mg dose, HIV-1 patients, plasma HIV-1 RNA, N=6, LDA model","−1.67 (−1.87, −1.47) log10 copies/mL"
same,PP = Posterior Probability of true mean difference in plasma HIV-1 RNA reduction from baseline between EFDA and placebo at least 0.5 log10 copies/mL,HIV-1; [5],>99.9%
same,"Placebo Corrected Change from Baseline in Viral Load, Posterior mean",HIV-1; [5],−1.64 log10 copies/mL
same,mean (95% CI) placebo adjusted VL reduction,"HIV-1; single 10 mg dose, at 168 hours post-dose, HIV-1 patients",1.67 log 10
same,recrudescence of viral load,"HIV-1; single 10 mg dose, through Day 10",no evidence of recrudescence
same,mean VL reduction,"HIV-1; single 10 mg dose, through Day 10, HIV-1 patients",1.78 log 10
same,tolerability,"HIV-1; single 10-mg dose, HIV-1 patients, limited number of mild/moderate adverse experiences",generally well tolerated
same,susceptibility of PBMCs to SIV infection,SIV,refractory to SIV infection
same,plasma concentration (below LLQ),[1]; at 48 hr post-dose and later on week 1,< 3.41 nM
same,plasma concentration (below LLQ),[1]; at 96 hr post-dose or later in week 3,< 3.41 nM
same,Cmax,"[1]; EFdA in plasma, 10 mg oral once weekly, Week 1, read-out: Cmax",193 nM
same,Cmax,"[1]; EFdA in plasma, 10 mg oral once weekly, Week 3, read-out: Cmax",241 nM
same,Cmax accumulation ratio Week 3/Week 1,"[1]; EFdA in plasma, 10 mg oral once weekly","1.25 (0.70, 1.66)"
same,Cmax,"[1]; EFdA in plasma, 30 mg oral once weekly, Week 1, read-out: Cmax",647 nM
same,Cmax,"[1]; EFdA in plasma, 30 mg oral once weekly, Week 3, read-out: Cmax",637 nM
same,Cmax accumulation ratio Week 3/Week 1,"[1]; EFdA in plasma, 30 mg oral once weekly","0.98 (0.73, 1.44)"
same,Cmax,"[1]; EFdA in plasma, 100 mg oral once weekly, Week 1, read-out: Cmax",1470 nM
same,Cmax,"[1]; EFdA in plasma, 100 mg oral once weekly, Week 3, read-out: Cmax",1850 nM
same,Cmax accumulation ratio Week 3/Week 1,"[1]; EFdA in plasma, 100 mg oral once weekly","1.26 (0.26, 3.59)"
same,exposure versus dose,"[1]; EFdA in plasma, 10, 30, 100 mg once weekly",generally dose-proportional
same,Tmax,"[1]; plasma, 10 mg, EFdA in plasma, 10 mg oral once weekly, Week 1",1 h
same,Tmax,"[1]; plasma, 10 mg, EFdA in plasma, 10 mg oral once weekly, Week 3",1 h
same,Tmax,"[1]; plasma, 30 mg, EFdA in plasma, 30 mg oral once weekly, Week 1",1 h
same,Tmax,"[1]; plasma, 30 mg, EFdA in plasma, 30 mg oral once weekly, Week 3",1 h
same,Tmax,"[1]; plasma, 100 mg, EFdA in plasma, 100 mg oral once weekly, Week 1",2 h
same,Tmax,"[1]; plasma, 100 mg, EFdA in plasma, 100 mg oral once weekly, Week 3",1 h
same,half-life,[1]; [6],74.1 h
same,AUC(0-t),[1]; [6],3.97 µM·h
same,half-life,[1]; [7],87.1 h
same,AUC(0-t),[1]; [7],12 µM·h
same,accumulation of EFdA in plasma,"[1]; plasma, multiple once weekly doses",little to no accumulation
same,VL suppression maintained,"SIVmac251; 3.9 mg/kg QW oral, from Day 7 to Day 14",7 days
same,VL drop,SIVmac251; 3.9 to 18.2 mg/kg QW oral,close to maximal
same,VL during the wash-out period,SIVmac251; after cessation of dosing,dose-dependent VL rebound
same,control of viremia,SIVmac251; once-weekly oral versus once-daily treatment,can control viremia with once-weekly oral administration as well as once-daily treatment
same,effect of food on intracellular pharmacokinetics,"[2]; 30 mg with food, high-fat meal, single dose",largely unaffected by a high-fat meal
same,plasma exposure versus dose,"[2]; EFdA in plasma, between 5 and 400 mg single oral dose",approximately dose-proportional
same,median Tmax,"[2]; EFdA in plasma, single oral doses 5 to 400 mg, healthy adults",0.5 h
same,reduction of plasma Cmax in rapid initial phase,"[2]; EFdA in plasma, within the first 6-12 hours, single oral dose",approximately 10 fold
same,half-life,"[2]; human, EFdA in plasma, single oral doses 5 to 400 mg, healthy adults, read-out: apparent terminal half-life, slow terminal phase",50 to 60 h
"C#C[C@]1(COP(=O)(O)OP(=O)(O)OP(=O)(O)O)O[C@@H](n2cnc3c(N)nc(F)nc32)C[C@@H]1O [EFdA-TP, 4′-ethynyl-2-fluoro-2′-deoxyadenosine triphosphate]",intracellular half-life,[3],exceeds 72 hrs
same,exposure versus dose,"[1]; EFdA-TP in PBMC, EFdA 10, 30, 100 mg once weekly",generally dose-proportional
same,AUC0-168 hr,[1]; [8],341 (21.2) hr * pmo1/10^6 cells
same,Cmax,[1]; [8],3.78 (15.3) pmo1/10^6 cells
same,AUC0-168 hr,[1]; [9],1160 (41.5) hr * pmo1/10^6 cells
same,Cmax,[1]; [9],13.2 (51.3) pmo1/10^6 cells
same,AUC0-168 hr,[1]; [10],1570 (12.3) hr * pmo1/10^6 cells
same,Cmax,[1]; [10],19.6 (13.7) pmo1/10^6 cells
same,AUC0-168 hr,[1]; [11],3020 (31.3) hr * pmo1/10^6 cells
same,Cmax,[1]; [11],27.9 (21.2) pmo1/10^6 cells
same,AUC0-168 hr,[1]; [12],4580 (17.6) hr * pmo1/10^6 cells
same,Cmax,[1]; [12],43.0 (16.7) pmo1/10^6 cells
same,accumulation of EFdA-TP AUC0-168hr and Cmax,[1]; [13],modest degree of accumulation
same,accumulation of EFdA-TP C168hr,[1]; [13],little to no accumulation
